Measured values taken from patent US11767313B2, “Compounds as nuclear transport modulators and uses thereof” (XWPHARMA LTD., priority 2018, dated 2023).
Like-named read-outs stand apart in the source and are kept apart here.

Key:
[1] = Ratio of brain to plasma; format: in vivo; conditions: rats, 10 mg/kg PO
Procedure: Following collection, brain tissue was rinsed with cold saline, dried on filter paper, weighed and snap-frozen by placing on dry ice. All samples were stored frozen at approximately −80° C. until analysis. At the time of analysis, brain tissue was homogenized (homogenizing solution PBS, pH 7.4), mixed with internal standard in acetonitrile, vortexed, centrifuged, and supernatant was injected for analysis. Concentration of compounds in plasma was determined using LC-MS-MS instrumentation (API 4000, Triple Quadrupole LC/MS/MS Mass Spectrometer). Plasma samples were treated with the identical method (except homogenization step) and the concentration of compound in each matrix was calculated based on generated standard curves.

[2] = test system: U87MG cells; experiment: Capase-Glo 317 apoptosis assay; format: cell-based; conditions: Homo sapiens, U-87 MG, 72 hours
Procedure: A Capase-Glo® 317 assay was used to determine the apoptosis activity of test compounds in U87MG cells.
Compounds were dissolved in 25 mM DMSO stock solution and serially diluted. DMSO was used as the vehicle control (high control, HC) and culture medium was used as the background (low control LC). The test compounds were applied to plates and spun at 25° C. at 1,000 RPM for 1 min and shaken on a plate shaker for 2 min. Samples (80 nL) of the compounds from the plates were transferred to 384-well cell culture plates using a liquid handler.
Cells were harvested and the cell numbers counted. 40 μL of the cell suspension with the adjusted density was added to 384-well cell culture pates. The final cell density is 1,000 cells/well. Cell culture medium only was used in the low control (LC) samples. The plates were covered with a lid and placed in a 5% CO2 incur at 37° C. for 72 hours.
After incubating for 72 hours, the plates were removed from the incubator and equilibrated at 25° C. for 15 minutes. CellTiter Glo® regen was incubated at 37° C. before the experiments. 40 μL of Capase-Glo® 317 was added into each well to be detected at a 1:1 ratio to culture medium. The plates were then placed at 25° C. for 30 min and read using an EnSpire® Plate Reader.
The % activity remaining was determined using the following formula: % Remaining Activity=[…]×(Lumsample−LumLC)/(LumHC−LUM LC), where HC is obtained from cells treated with 0.1% DMSO only, LC is obtained from culture medium only.

[3] = test system: H460; experiment: CellTiter-Glo cell proliferation assay, H460; format: cell-based; conditions: Homo sapiens, NCI-H460, 72 hours, Table 1, read-out: Growth inhibition (IC50)
Procedure: (§1) CellTiter-Glo® Luminescent Cell Viability assay (with Promega CellTiter 96® Luminescent CellTiter-Glo® kit) was used to study the proliferation inhibition by test compounds. Compounds were resuspended in DMSO to make a 25 mM stock suspension. Cells of cancer cell lines or normal tissues were seeded in 96-well plates at 1,500 to 5,000 cells/well overnight. Compounds were 2- or 3-fold diluted serially to obtain 10 concentrations. Then, the drugs were added to the cell wells by Bravo (Agilent) and incubated for 72 hours. The cells were lysed by adding CellTiter-Glo® Reagent (per manufacturer's instructions) and subsequently, the luminescence was read using EnVision® (PerkinElmer).
(§2) The percent of growth was calculated as follows. DMSO-treated cells were employed as vehicle control (High control, HC) and culture medium alone was employed as background (Low control, EC). % growth=100×(Lum sample−Lum EC)/(Lum HC−Lum EC). The ICso was calculated by concentration-response curve fitting using Graphpad Prism.
(§3) Hematological cancer cell lines tested included OCI-AML3, MV-4-11, KG-1, Kasumi-1, K562, THP-1; solid cancer cell lines tested included U87MG, U251, T98G, LN229, A172, H460, H2009, A549; normal cell lines tested included HCN2 and 3T3-L1. […] However, they were not toxic to in vitro cultured normal cells.

[4] = test system: 3T3; experiment: Cytotoxicity, cell proliferation assay, 3T3; format: cell-based; conditions: Mus musculus, NIH3T3; Table 9
Procedure: as §1, §2
The cytotoxicity of test compounds was also determined in glioblastoma (U87MG)), brain (HCN2) and 3T3 cell lines was determined using the cell proliferation assay as described in Example 19.

[5] = test system: 3T3-L1; experiment: CellTiter-Glo cell proliferation assay, 3T3-L1 (normal); format: cell-based; conditions: Mus musculus
Procedure: as §1, §2, §3

[6] = molecular target: T1, CRM1 (Homo sapiens, UniProt O14980); experiment: PD effects by IHC in U87MG-luc orthotopic model, CRM1; format: in vivo, mice; conditions: orally three times a week for 2 weeks; vs vehicle control
T1 construct: from tissue; host or cells: U87MG-luc orthotopic xenograft tumours in mouse brain
T1 sequence (O14980 whole entry): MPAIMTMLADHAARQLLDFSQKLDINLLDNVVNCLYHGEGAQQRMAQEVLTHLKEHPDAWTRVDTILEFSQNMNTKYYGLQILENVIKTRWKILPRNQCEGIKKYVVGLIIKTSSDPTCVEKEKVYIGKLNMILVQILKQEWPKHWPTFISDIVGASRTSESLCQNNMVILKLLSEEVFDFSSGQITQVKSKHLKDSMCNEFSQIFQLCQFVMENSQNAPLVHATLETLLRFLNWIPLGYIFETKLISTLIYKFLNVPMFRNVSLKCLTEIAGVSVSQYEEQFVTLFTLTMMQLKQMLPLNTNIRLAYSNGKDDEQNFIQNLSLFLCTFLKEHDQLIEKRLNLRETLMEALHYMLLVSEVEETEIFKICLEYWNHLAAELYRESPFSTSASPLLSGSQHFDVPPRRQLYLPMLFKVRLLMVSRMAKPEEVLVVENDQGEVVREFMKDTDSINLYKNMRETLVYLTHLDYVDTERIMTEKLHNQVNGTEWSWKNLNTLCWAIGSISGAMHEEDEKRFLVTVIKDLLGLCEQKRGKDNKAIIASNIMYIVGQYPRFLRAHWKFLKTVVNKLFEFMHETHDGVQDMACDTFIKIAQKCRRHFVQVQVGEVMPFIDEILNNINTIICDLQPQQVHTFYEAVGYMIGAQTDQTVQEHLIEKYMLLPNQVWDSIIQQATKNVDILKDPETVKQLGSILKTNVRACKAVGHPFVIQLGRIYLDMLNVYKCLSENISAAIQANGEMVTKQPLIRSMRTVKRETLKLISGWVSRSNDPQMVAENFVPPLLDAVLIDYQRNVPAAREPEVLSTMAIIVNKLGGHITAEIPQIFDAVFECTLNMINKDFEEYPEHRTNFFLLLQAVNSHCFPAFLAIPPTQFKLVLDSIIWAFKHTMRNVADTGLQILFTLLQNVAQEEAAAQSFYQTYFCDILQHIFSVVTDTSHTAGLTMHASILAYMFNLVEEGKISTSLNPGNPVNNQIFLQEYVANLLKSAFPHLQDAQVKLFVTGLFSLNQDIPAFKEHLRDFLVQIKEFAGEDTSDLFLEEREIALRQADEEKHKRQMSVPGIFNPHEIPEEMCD
Procedure: Based on the bioluminescent signal of tumor, mice were randomly assigned to respective groups using a computer-generated randomization procedure, which included vehicle and compound III-treated groups, respectively, with 5 animals per group. Compound III (20 mg/kg) was given orally 3 times a week (on Day 1, 3, 5) for 2 weeks. Animals for IHC study were euthanized at 6 hours after the last dose and perfused with normal saline followed by fixation with 4% paraformaldehyde. Entire brains containing tumors were collected and kept in fixative for 24 hours before proceeding for paraffin block.

[7] = in vivo; conditions: female, mouse

Row | SMILES | Kp at 0.25 h ([1]; rat, brain/plasma, 0.25 h) | Kp at 1 h ([1]; rat, brain/plasma, 1 h) | Kp at 8 h ([1]; rat, brain/plasma, 8 h) | brain concentration (second number of pair) ([1]; 0.25 h) | plasma concentration (first number of pair) ([1]; 0.25 h) | brain concentration (second number of pair) ([1]; 1 h) | plasma concentration (first number of pair) ([1]; 1 h) | brain concentration (second number of pair) ([1]; 8 h) | plasma concentration (first number of pair) ([1]; 8 h) | EC50 [2] | Emax ([2]; U87MG) | IC50 [3] | IC50 [4] | IC50 ([5]; 3T3-L1, Table 6, read-out: 3T3-L1 IC50) | IC50 ([5]; 3T3-L1 normal cell line, 72 hours, Table 1, read-out: Growth inhibition (IC50)) | expression of CRM1 in tumors (IHC) [6] | MTD [7]
1 | O=C(/C=C\n1cnc(-c2cc(C(F)(F)F)cc(S(F)(F)(F)(F)F)c2)n1)NNc1cnccn1 [Compound I, (Z)-3-(3-(3-(pentafluorosulfanyl)-5-(trifluoromethyl)phenyl)-1H-1,2,4-triazol-1-yl)-N′-(pyrazin-2-yl)acrylohydrazide] | 0.386 | 0.707 | 0.782 | 319 ng/g | 810 ng/g | 1301 ng/g | 1887 ng/g | 194 ng/g | 252 ng/g | 16 µM | 325% | 0.294 µM | > 50 µM | > 50 µM | > 50 µM |  | 
2 | CC(C)(C)C(=O)NNC(=O)/C=C\n1cnc(-c2cc(C(F)(F)F)cc(S(F)(F)(F)(F)F)c2)n1 [Compound III, (Z)-3-(3-(3-(Pentafluorosulfanyl)-5-(trifluoromethyl)phenyl)-1H-1,2,4-triazol-1-yl)-N′-pivaloylacrylohydrazide] |  |  |  |  |  |  |  |  |  |  |  |  |  |  |  | significantly decreased | < 25 mg/kg
